This is an account of results in patent US20110060012A1, “4-[3-(ARYLOXY)BENZYLIDENE]-3-METHYL PIPERIDINE 5-MEMBERED ARYL CARBOXAMIDE COMPOUNDS USEFUL AS FAAH INHIBITORS” (Pfizer Inc., priority 2008, published 2011).

The assay has as its target T1, Human FAAH (Homo sapiens, UniProt O00519).
T1 construct: made in house
T1 sequence (O00519 1-579): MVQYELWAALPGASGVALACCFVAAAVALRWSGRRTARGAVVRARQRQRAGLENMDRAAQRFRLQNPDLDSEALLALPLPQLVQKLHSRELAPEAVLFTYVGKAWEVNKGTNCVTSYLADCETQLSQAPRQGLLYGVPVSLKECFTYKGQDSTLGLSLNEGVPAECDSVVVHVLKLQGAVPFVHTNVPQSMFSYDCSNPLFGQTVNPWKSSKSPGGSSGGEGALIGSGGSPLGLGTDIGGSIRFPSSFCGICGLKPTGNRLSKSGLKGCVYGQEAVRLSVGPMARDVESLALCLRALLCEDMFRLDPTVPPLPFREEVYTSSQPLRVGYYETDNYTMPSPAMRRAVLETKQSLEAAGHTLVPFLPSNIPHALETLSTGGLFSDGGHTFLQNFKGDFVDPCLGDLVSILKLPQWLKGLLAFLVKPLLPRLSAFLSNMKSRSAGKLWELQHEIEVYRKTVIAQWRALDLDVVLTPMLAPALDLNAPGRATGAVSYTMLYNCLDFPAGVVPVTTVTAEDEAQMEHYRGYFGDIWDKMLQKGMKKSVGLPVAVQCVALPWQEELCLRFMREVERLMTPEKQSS
The experiment in a line: FAAH enzyme assay (glutamate dehydrogenase-coupled, oleamide substrate). Type of assay: biochemical. As to conditions: human FAAH 1-4 nM, pH 7.4, 30° C., absorbance at 340 nm over 90 min, read-out: hFAAH Kinact/Ki. On the procedure: A FAAH enzyme assay may be carried out as described in W02006/085196 in 384-well clear polystyrene plates in a total volume of 50 μl per well. All percents are by volume. To each well was placed the reaction mixture (40 μl) containing 1-4 nM FAAH, 50 mM NaPi, pH 7.4, 3 mM α-ketoglutarate, 0.15 mM NADH, 7.5 U/ml glutamate dehydrogenase, 2 mM ADP, 1 mM EDTA, and 0.1% Triton X-100 (The concentration shown for each component is the final concentration in the assay). To this mixture was added 5 μl of a compound of Examples 1 to 20 at various concentrations prepared in 50% DMSO (or 5 μl 50% DMSO for controls). This was immediately followed by the addition of 5 μl oleamide (500 μM) dissolved in 75% EtOH/25% DMSO and the reaction mixture is mixed for 1.5 min. The final concentrations of DMSO and EtOH in the assay were each 7.5%. The reactions was then incubated at 30° C. and the absorbance at 340 nm was collected over a period of 90 min with readings taken in 30-second intervals using SpectraMax Plus^384 Microplate Spectrophotometer (Molecular Devices, Sunnyvale, Calif.). Human FAAH used in the assay was prepared as described in the patent application WO 2006/067613. The purity of the enzyme used was greater than 98% based on an analysis by SDS-polyacrylamide gel electrophoresis followed by Coomassie Blue staining.
Initial velocity data (V) is obtained from the slopes of the initial progressive curves. They are plotted as a function of substrate concentration and fit to the Michaelis-Menten equation (1) using Prism (GraphPad Software, Inc., San Diego, Calif.) software to obtain Km and Vmax values.
To obtain potencies of irreversible inhibitors, progressive curves consistent with first order inhibition kinetics (two-step irreversible inhibition mechanism) are fit to equation (2) by nonlinear least squares regressions to determine kobs values at each inhibitor concentration, where [P]t is the absorbance at time t, V0 is a constant related to the steady state rate of the uninhibited reaction, and kobs is the first order rate constant for enzyme inactivation. […]
As to `Cc1noc(NC(=O)N2CC/C(=C\c3cccc(Oc4ccc(C(F)(F)F)cn4)c3)C(C)C2)c1C` (single isomer, unassigned) [Example 1, (4E)-N-(3,4-dimethylisoxazol-5-yl)-3-methyl-4-(3-{[5-(trifluoromethyl)pyridin-2-yl]oxy}benzylidene)piperidine-1-carboxamide], the kinact/KI turned out to be 624 M⁻¹ s⁻¹.

With `Cc1oncc1NC(=O)N1CC/C(=C\c2cccc(Oc3ccc(C(F)(F)F)cn3)c2)C(C)C1` (single isomer, unassigned) [Example 2, (4E)-3-methyl-N-(5-methylisoxazol-4-yl)-4-(3-{[5-(trifluoromethyl)pyridin-2-yl]oxy}benzylidene)piperidine-1-carboxamide], the kinact/KI was found to be 2850 M⁻¹ s⁻¹.

Turning to `CC1CN(C(=O)Nc2cnoc2)CC/C1=C\c1cccc(Oc2ccc(C(F)(F)F)cn2)c1` (single isomer, unassigned) [Example 3, (4E)-N-isoxazol-4-yl-3-methyl-4-(3-{[5-(trifluoromethyl)pyridin-2-yl]oxy}benzylidene)piperidine-1-carboxamide], the kinact/KI came out at 4350 M⁻¹ s⁻¹.
